Like-named read-outs stand apart in the source and are kept apart here.
Legend:
Type in all cases: cell-based
[1] = test system: HCV 1a RLuc cells (dicistronic genotype 1a H77 replicon, RLuc reporter); experiment: microbe, parasite or virus in culture; settings: Hepatitis C virus, read-out: 1a
How it was run: (§1)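 Renilla luciferase HCV replicon cells: dicistronic 1b Con1, 1a H77 or 2a JFH-1 replicons, or a JFH-1 chimera carrying J6 NS5A (M31 present). Compound in DMSO serial dilutions, 72 h incubation, then lysis and luciferase read. EC50 by non-linear regression.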

[2] = test system: HCV 4a Rluc cells (NS5A chimeric genotype 1b Con1 replicon with genotype 4a NS5A gene); experiment: microbe, parasite or virus in culture; settings: Hepatitis C virus, read-out: 4a
How it was run: (§2)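 Replicon cells stably carrying the listed RLuc-encoding dicistronic replicons were seeded and treated with DMSO serial dilutions of compound (10 mM stocks) diluted into culture medium. After 72 h, cells were lysed and Renilla luciferase activity measured. EC50 was derived by non-linear regression.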

[3] = test system: HCV 1b RLuc cells (dicistronic genotype 1b Con1 replicon, RLuc reporter); experiment: microbe, parasite or virus in culture; settings: Hepatitis C virus, read-out: 1b (nM)
How it was run: as §1

[4] = test system: HCV 2b Rluc cells (NS5A chimeric genotype 2a JFH-1 replicon with genotype 2b MD2b-1 NS5A gene, M31 present); experiment: microbe, parasite or virus in culture; settings: Hepatitis C virus, read-out: 2b
How it was run: as §2

[5] = test system: HCV 3a RLuc cells (NS5A chimeric genotype 1b Con1 replicon with consensus genotype 3a NS5A gene); experiment: microbe, parasite or virus in culture; settings: Hepatitis C virus, read-out: 3a, genotype 3a replicon
How it was run: as §2

[6] = test system: HCV 2a JFH-1 Rluc cells (dicistronic genotype 2a JFH-1 replicon, RLuc reporter); experiment: microbe, parasite or virus in culture; settings: Hepatitis C virus, read-out: 2a JFH
How it was run: as §1

[7] = test system: HCV 2a Rluc cells (NS5A chimeric genotype 2a JFH-1 replicon with genotype 2a J6 strain NS5A gene, M31 present); experiment: HCV replicon reporter assay, genotype 2a J6 (M31 present); settings: Hepatitis C virus, read-out: 2a J6
Description: Evaluation of cell-based anti-HCV activity: Antiviral potency (EC50) was determined using a Renilla luciferase (RLuc)-based HCV replicon reporter assay. To perform the assay for genotype 1 and 2a JFH-1, HCV 1b RLuc cells (harboring a dicistronic genotype 1b Con1 replicon that encodes a RLuc reporter), or HCV 1a RLuc cells (harboring a dicistronic genotype 1a H77 replicon that encodes a RLuc reporter), or HCV 2a JFH-1 Rluc cells (harboring a dicistronic genotype 2a JFH-1 replicon that encodes a RLuc reporter) were dispensed into 384-well plates. To perform the assay for genotype 2a (with M31 present) or 2b, HCV 2a Rluc or 2b Rluc cells (both with M31 present) harboring a dicistronic NS5A chimeric genotype 2a JFH-1 replicon that encodes a RLuc reporter and either genotype 2a J6 strain NS5A gene or genotype 2b MD2b-1 NS5A gene (based on Los Alamos HCV database isolates, both with M31 present) respectively, were dispensed into 384-well plates. To perform the assay for genotype 3 and 4, HCV 3a RLuc or 4a Rluc cells harboring a dicistronic NS5A chimeric genotype 1b Con1 replicon that encodes a RLuc reporter and either a consensus genotype 3a NS5A gene or genotype 4a NS5A gene (based on Los Alamos HCV database isolates) respectively, were dispensed into 384-well plates. Compounds were re-suspended in DMSO at a concentration of 10 mM and serially diluted in DMSO either manually or using an automated pipeting instrument. Serially diluted compounds were mixed with cell culture media and added to the seeded cells. […] 72 hours later, cells were lysed and Renilla luciferase activity quantified as recommended by the manufacturer (Promega-Madison, Wis.). Non-linear regression was performed to calculate EC50 values.

Row | Structure (SMILES) | EC50 [1] [pM] | EC50 [2] [pM] | EC50 [3] [nM] | EC50 [4] [pM] | EC50 [5] [pM] | EC50 [6] [pM] | EC50 ([1]; genotype 1a replicon) [pM] | EC50 ([6]; genotype 2a JFH-1 replicon) [pM] | EC50 [7] [pM]
1 | CC[C@H](C)C(NC(=O)OC)C(=O)N1CCC[C@H]1c1ncc(-c2cc3c4c(c2)OCc2cc(-c5cnc([C@@H]6CCCN6C(=O)[C@@H](NC(=O)OC)[C@@H](C)CC)[nH]5)cc(c2-4)OC3)[nH]1 (stereo in doubt) [Example 346] | 1 to 999 | 1 to 990 | 0.019 | 1000 to 44000 | 1 to 990 | 1 to 999 | – | – | –
2 | COC(=O)N[C@H](C(=O)N1CCC[C@H]1c1ncc(-c2cc3c4c(c2)COc2cc(-c5cnc([C@@H]6CCCN6C(=O)[C@@H](NC(=O)OC)C(C)C)[nH]5)cc(c2-4)CC3)[nH]1)C(C)C [Example 370] | – | 1 to 990 | 0.028 | – | 1 to 990 | – | 1 to 999 | 1 to 999 | > 44000
3 | COC(=O)N[C@H](C(=O)N1[C@@H]2CC[C@@H](C2)[C@H]1c1nc(Cl)c(-c2ccc(-c3ccc4c(ccc5nc([C@@H]6C[C@H]7C[C@H]7N6C(=O)[C@@H](NC(=O)OC)C(C)C)[nH]c54)c3)cc2)[nH]1)C(C)C [Example 381] | – | 1 to 990 | 0.008 | – | 1 to 990 | – | 1 to 999 | 1 to 999 | > 44000
4 | COC(=O)N[C@H](C(=O)N1CCC[C@H]1c1ncc(-c2cc3c4c(c2)OCc2cc(-c5[nH]c([C@@H]6CCCN6C(=O)[C@@H](NC(=O)OC)C(C)C)nc5Cl)cc(c2-4)OC3)[nH]1)C(C)C [Example 389] | – | 1 to 990 | 0.015 | – | 1 to 990 | – | 1 to 999 | 1 to 999 | 1000 to 44000
5 | COC(=O)N[C@H](C(=O)N1[C@@H]2C[C@@H]2C[C@H]1c1ncc(-c2ccc(-c3ccc4c(ccc5nc([C@@H]6C[C@H]7C[C@H]7N6C(=O)[C@@H](NC(=O)OC)C(C)C)[nH]c54)c3)cc2F)[nH]1)C(C)C [Example 390] | – | 1 to 990 | 0.003 | – | 1000 to 4990 | – | 1 to 999 | 1 to 999 | > 44000
6 | COC(=O)N[C@H](C(=O)N1[C@@H]2CC[C@@H](C2)[C@H]1c1nc2ccc3cc(-c4ccc(-c5cnc([C@@H]6C[C@H]7C[C@H]7N6C(=O)[C@@H](NC(=O)OC)C(C)C)[nH]5)c(F)c4)ccc3c2[nH]1)C(C)C [Example 391] | – | 1 to 990 | 0.009 | – | > 5000 | – | 1 to 999 | 1 to 999 | > 44000
7 | COC(=O)N[C@H](C(=O)N1[C@@H]2CC[C@@H](C2)[C@H]1c1nc2ccc3cc(-c4ccc(-c5cnc([C@@H]6C[C@H]7C[C@H]7N6C(=O)[C@@H](NC(=O)OC)C6CCOCC6)[nH]5)c(F)c4)ccc3c2[nH]1)C(C)C [Example 392] | – | 1 to 990 | 0.022 | – | 1000 to 4990 | – | 1 to 999 | 1 to 999 | > 44000
8 | COC(=O)N[C@H](C(=O)N1CCC[C@H]1c1ncc(-c2ccc3c(c2)COc2cc(-c4cnc([C@@H]5CCCN5C(=O)[C@@H](NC(=O)OC)C(C)C)[nH]4)cc(F)c2-3)[nH]1)C(C)C [Example 393] | – | 1 to 990 | 0.012 | – | 1 to 990 | – | 1 to 999 | 1 to 999 | > 44000
9 | COC(=O)N[C@H](C(=O)N1CCC[C@H]1c1nc(Cl)c(-c2cc3c4c(c2)OCc2cc(-c5[nH]c([C@@H]6CCCN6C(=O)[C@H](NC(=O)OC)c6ccccc6)nc5Cl)cc(c2-4)OC3)[nH]1)C(C)C [Example 399] | – | 1 to 990 | 0.017 | – | 1 to 990 | – | 1 to 999 | 1 to 999 | 1 to 999
